Experimental data from publication PMC12845078 (Pharmaceuticals, 2025).

What was measured:
[1] = Whole blood/plasma distribution ratio, mouse; assay type: in vitro ADME
Procedure: After incubation for 20 min, a portion of the whole blood was centrifuged at 2500× g for 10 min at 4 °C to separate plasma; another portion of the whole blood was subjected to three cycles of freeze–thawing and ultrasonicated for 10 min to disrupt cells. Equal volumes of plasma and whole blood samples were added to the whole blood and plasma specimens, respectively, followed by protein precipitation with acetonitrile containing an internal standard (IS). […] The RED inserts were placed in the matching incubation plate: 200 µL of drug-containing matrix were added to the sample chamber, and 400 µL of PBS buffer (pH: 7.4) were added to the buffer chamber. After incubation in a constant-temperature shaking incubator for 6 h (37 °C), samples from the sample chamber and buffer chamber were diluted 1:1 with PBS or matrix, respectively, and proteins were precipitated with acetonitrile containing IS.

[2] = biological target: T1, CYP enzymes involved in melatonin 6-hydroxylation (Rattus norvegicus, UniProt P04799); test: Competitive inhibition of CBD on MT 6-hydroxylation, rat liver microsomes; assay type: in vitro ADME; conditions: probe melatonin (MT) 1 μM, 6-hydroxylation to 6-HMT
T1 sequence (P04799 2-513): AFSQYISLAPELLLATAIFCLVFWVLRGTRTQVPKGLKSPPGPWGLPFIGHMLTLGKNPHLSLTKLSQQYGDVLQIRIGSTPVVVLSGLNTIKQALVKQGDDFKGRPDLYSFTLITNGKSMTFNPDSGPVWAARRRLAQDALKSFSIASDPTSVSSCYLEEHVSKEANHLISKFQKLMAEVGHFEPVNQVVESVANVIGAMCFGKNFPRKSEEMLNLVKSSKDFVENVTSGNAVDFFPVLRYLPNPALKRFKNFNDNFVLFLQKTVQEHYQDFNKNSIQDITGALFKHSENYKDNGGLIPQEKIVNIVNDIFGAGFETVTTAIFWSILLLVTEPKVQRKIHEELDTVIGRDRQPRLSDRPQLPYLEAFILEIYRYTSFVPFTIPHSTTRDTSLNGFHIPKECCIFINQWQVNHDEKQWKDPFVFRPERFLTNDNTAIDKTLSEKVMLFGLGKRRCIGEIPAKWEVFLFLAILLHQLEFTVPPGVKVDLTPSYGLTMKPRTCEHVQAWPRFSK
Procedure: The final incubation system contained 100 mM PBS, 5 mM MgCl2, 0.5 mg/mL liver microsomal protein, and 1 mM NADPH. […] The final concentration of MT was 1 μM.

[3] = tested on: CYP enzymes mediating MT 6-hydroxylation in rat liver microsomes; test: Irreversible (mechanism-based) inhibition of CBD on MT 6-hydroxylation, rat liver microsomes; assay type: in vitro ADME
Procedure: The reaction was initiated by adding the NADPH working solution that had also been pre-incubated for 5 min. […] After pre-incubation for different durations (0, 5, 10, 20, 30 min), 10 μL of the incubation mixture were transferred to a secondary incubation system containing 148 μL PBS and 2 μL MT working solution (final MT concentration: 200 μM). An additional 40 μL of NADPH were added, and the mixture was incubated for 30 min.
Irreversible inhibition assays: A semi-logarithmic curve was generated by plotting residual enzyme activity against pre-incubation time. The observed CYP enzyme inactivation rate (Kobs) was derived from the initial slope of the linear regression. The Lineweaver-Burk double reciprocal curve (1/Kobs vs. 1/I) described by Formula (8) was used to determine KI and Kinact: Kinact was estimated from the reciprocal of the Y-intercept, and KI was obtained from the negative reciprocal of the X-intercept.(8) 1/k=KI/Kinact1/I+1/Kinact

[4] = tested on: CYP enzymes of MT 6-hydroxylation; test: in vitro; conditions: rat, liver microsomes, probe melatonin (MT) 2 μM, 6-hydroxylation to 6-HMT, IC50 Ratio (IC50 shift), RLM, 30 min pre-incubation with/without NADPH
Procedure: (§1) The reaction was initiated by adding pre-warmed NADPH (control groups lacked NADPH). The final incubation mixture contained 100 mM PBS, 5 mM MgCl2, liver microsomes (0.5 mg/mL), 1 mM NADPH, and 0.2% BSA. […] Concentrations in beagle dog microsomal incubations were 0, 0.125, 0.25, 0.5, 1, 2, 4, 8, 16, and 32 μM. […] All samples were prepared in triplicate. The concentration of 6-HMT was quantified using LC-MS/MS.
(§2) Competitive inhibition and time-dependent inhibition assays: The production of 6-HMT without inhibitors was set as 100%.

[5] = tested on: CYP enzymes of MT 6-hydroxylation; test: in vitro; conditions: human, liver microsomes, probe melatonin (MT) 2 μM, 6-hydroxylation to 6-HMT, IC50 Ratio (IC50 shift), HLM, 30 min pre-incubation with/without NADPH
Procedure: as §1, §2

In the case of `C=C(C)[C@@H]1CCC(C)=C[C@H]1c1c(O)cc(CCCCC)cc1O` [CBD, Cannabidiol], the “Rb/p (Ratio)” value [1] is reported as 0.82 (0.19), the IC50 at 30 min ([2]; human, IC50, inhibition of MT 6-hydroxylation, hepatic microsomes of other species (not beagle)) is reported as 13.5 to 36.5 µM and the IC50 at 30 min ([2]; IC50, inhibition of MT 6-hydroxylation, RLM, MT 1 μM) is reported as 13.5 ± 1.15 µM. The IC50 at 30 min ([2]; IC50, rat, as listed in Table 6 for static DDI model) was 9.51 µM, the irreversible inhibitory effect [3] was “no irreversible inhibitory effect was observed” and the IC50 shift at 30 min [4] was 1.81. It also gave an IC50 shift at 30 min [5] of 2.55.
